Measured values reported in ChEMBL document CHEMBL1201862, “PubChem BioAssay data set” (2004).
Activity calls are given as the source filed them.

How the values were obtained:
[1] = molecular target: T1, Rac GTPase-activating protein 1 (Homo sapiens, UniProt Q9H0H5); test: MgcRacGAP GTPase-activating activity inhibitors, confirmation, biochemical, ADP Hunter fluorescence, primary and confirmatory (AID 624330); assay type: functional
T1 sequence (Q9H0H5 whole entry): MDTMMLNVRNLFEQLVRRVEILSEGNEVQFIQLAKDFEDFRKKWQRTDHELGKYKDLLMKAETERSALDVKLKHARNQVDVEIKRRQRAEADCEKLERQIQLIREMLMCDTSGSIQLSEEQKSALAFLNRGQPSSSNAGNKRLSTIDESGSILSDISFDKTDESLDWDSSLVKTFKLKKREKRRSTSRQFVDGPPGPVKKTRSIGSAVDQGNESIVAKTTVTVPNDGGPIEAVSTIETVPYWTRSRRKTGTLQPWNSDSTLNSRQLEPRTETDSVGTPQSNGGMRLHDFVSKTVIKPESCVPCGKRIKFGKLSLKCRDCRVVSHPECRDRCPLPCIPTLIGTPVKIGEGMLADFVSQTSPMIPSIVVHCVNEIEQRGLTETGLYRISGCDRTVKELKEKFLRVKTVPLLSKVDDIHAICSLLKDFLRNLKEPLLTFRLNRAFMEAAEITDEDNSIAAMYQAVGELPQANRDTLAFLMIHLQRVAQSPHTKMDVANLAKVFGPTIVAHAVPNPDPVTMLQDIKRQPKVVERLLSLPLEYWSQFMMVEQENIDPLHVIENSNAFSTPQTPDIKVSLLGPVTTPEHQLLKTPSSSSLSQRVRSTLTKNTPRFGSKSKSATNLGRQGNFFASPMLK

[2] = molecular target: T2, Cytochrome P450 1A2 (Homo sapiens, UniProt P05177);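 further: PubChem cytochrome P450 panel assay, CYP1A2 panel member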
T2 sequence (P05177 whole entry): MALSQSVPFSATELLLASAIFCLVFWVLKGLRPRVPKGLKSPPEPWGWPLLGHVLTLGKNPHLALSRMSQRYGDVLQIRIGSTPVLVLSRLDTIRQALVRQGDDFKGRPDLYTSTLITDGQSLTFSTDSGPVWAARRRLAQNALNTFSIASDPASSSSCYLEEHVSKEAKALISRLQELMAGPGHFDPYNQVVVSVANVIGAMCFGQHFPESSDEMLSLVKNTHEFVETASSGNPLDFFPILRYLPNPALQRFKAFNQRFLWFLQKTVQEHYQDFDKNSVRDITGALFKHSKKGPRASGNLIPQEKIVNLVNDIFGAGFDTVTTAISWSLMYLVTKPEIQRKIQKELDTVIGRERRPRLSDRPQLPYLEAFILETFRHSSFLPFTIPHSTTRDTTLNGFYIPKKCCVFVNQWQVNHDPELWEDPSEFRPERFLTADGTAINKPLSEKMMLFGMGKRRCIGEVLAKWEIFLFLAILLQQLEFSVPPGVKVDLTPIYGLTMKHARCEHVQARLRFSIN

[3] = molecular target: Cytochrome P450 2C19 (Homo sapiens, UniProt P33261); test: Cytochrome panel assay with activity outcomes. Panel member name: p450-cyp2c19 Compounds with AC50 equal or less than 10 uM are considered active; assay type: functional; conditions: read-out: AC50
Sequence of Cytochrome P450 2C19 (P33261 whole entry): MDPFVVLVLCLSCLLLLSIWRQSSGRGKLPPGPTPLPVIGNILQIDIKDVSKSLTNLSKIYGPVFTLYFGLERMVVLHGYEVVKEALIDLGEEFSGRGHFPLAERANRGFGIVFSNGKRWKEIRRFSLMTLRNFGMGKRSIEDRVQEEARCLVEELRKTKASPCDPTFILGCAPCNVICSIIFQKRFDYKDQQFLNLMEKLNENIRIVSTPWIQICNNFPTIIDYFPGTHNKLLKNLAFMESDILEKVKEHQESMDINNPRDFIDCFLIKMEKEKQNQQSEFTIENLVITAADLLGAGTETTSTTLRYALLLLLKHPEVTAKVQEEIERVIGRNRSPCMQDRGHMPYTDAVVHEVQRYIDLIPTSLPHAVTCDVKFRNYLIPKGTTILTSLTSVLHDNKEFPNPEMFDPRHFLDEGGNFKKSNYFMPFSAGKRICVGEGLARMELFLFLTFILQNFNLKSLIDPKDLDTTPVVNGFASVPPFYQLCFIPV

[4] = molecular target: Cytochrome P450 2D6 (Homo sapiens, UniProt P10635);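 further: CYP2D6 member of a cytochrome P450 panel assay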
Sequence of Cytochrome P450 2D6 (P10635 whole entry): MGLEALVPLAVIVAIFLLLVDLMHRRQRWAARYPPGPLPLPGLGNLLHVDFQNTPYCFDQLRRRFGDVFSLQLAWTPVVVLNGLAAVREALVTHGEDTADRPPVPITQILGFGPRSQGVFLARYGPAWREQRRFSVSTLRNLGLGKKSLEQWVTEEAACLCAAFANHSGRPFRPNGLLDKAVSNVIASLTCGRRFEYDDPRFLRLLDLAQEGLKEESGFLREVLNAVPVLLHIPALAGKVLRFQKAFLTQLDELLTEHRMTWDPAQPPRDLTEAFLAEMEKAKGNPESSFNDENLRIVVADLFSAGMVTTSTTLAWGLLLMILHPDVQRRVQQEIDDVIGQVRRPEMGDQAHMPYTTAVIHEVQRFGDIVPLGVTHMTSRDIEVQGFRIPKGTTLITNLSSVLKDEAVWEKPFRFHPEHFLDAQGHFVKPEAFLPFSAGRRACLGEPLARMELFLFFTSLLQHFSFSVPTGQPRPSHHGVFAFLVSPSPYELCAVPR

[5] = Luminescence Cell-Based Dose Response HTS to Identify Activators of Luciferase Translation or Activity in H4 […] Cells. [Related pubchem assays: 1829 (Project Summary), 1814 (Primary HTS)]; assay type: functional
[6] = test system: H4; test: Luminescence Cell-Based Dose Response HTS to Identify Activators of 5'UTR Stem-Loop Driven Prion Protein mRNA Translation in H4 Neuroglioblastoma Cells. [Related pubchem assays: 1829 (Project Summary), 1814 (Primary HTS)]; assay type: functional; conditions: Homo sapiens
[7] = NIH-3T3 fibroblast cytotoxicity, dose response, cytotoxicity control, cell-based, fluorescence, Alamar Blue, secondary assay (AID 2327); assay type: functional;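 further: NIH-3T3 mouse fibroblasts cultured with fluconazole at 8 µg/mL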
[8] = molecular target: Cytochrome P450 3A4 (Homo sapiens, UniProt P08684);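 further: CYP3A4 tested as one member of a cytochrome P450 panel screen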
Sequence of Cytochrome P450 3A4 (P08684 whole entry): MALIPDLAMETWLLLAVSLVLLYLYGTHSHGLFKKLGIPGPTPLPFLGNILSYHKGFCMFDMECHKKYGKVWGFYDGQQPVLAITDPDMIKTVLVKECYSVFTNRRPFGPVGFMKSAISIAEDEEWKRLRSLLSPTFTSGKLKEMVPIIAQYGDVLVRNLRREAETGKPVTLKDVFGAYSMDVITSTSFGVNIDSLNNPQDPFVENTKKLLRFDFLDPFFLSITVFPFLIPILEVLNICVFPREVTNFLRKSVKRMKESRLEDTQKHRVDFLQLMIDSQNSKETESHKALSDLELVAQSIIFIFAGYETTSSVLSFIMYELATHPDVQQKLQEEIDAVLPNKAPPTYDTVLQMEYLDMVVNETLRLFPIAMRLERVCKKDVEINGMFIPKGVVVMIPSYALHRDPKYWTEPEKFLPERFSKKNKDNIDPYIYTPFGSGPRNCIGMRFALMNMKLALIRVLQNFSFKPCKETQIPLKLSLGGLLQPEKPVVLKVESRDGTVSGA

[9] = cells; assay type: functional
[10] = inhibitors of firefly luciferase expression or activity, dose response, H4 neuroglioma cells, luminescence (AID 1990); assay type: functional, cell-based
[11] = Luminescence Cell-Based Dose Response HTS to Identify Inhibitors of 5'UTR Stem-Loop Driven Prion Protein mRNA Translation in H4 Neuroglioblastoma Cells. [Related pubchem assays: 1827 (Project Summary), 1813 (Primary HTS)]; assay type: functional
[12] = inhibitors of SNCA 5'UTR-driven reporter translation, confirmation, H4 neuroglioma cells, luminescence (AID 1988); assay type: functional, cell-based
[13] = molecular target: Luciferin 4-monooxygenase (Photinus pyralis, UniProt P08659); test: firefly luciferase enzyme inhibitors, dose response, biochemical, luminescence (AID 1891)
Sequence of Luciferin 4-monooxygenase (P08659 whole entry): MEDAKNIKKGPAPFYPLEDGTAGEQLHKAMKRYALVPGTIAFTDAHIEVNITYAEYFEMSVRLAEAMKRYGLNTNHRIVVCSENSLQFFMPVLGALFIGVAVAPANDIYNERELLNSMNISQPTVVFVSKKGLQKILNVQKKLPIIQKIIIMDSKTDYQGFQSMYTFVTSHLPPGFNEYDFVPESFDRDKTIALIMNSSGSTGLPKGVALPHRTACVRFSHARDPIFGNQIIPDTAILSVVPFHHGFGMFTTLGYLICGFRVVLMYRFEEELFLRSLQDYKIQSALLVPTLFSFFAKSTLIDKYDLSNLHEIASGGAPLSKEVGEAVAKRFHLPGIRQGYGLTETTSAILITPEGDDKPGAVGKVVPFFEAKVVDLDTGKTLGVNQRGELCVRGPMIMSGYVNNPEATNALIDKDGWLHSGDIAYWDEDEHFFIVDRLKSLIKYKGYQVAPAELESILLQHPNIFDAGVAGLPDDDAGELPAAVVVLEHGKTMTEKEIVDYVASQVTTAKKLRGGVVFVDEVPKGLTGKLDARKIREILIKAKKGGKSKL

[14] = Luminescence Cell-Based Dose Confirmation HTS to Identify Inhibitors of Platelet Dense Granule Release. [Related pubchem assays: 1663 (Primary HTS), 1678 (Summary of Project)]; assay type: functional
[15] = molecular target: T3, Heat shock factor protein 1 (Mus musculus, UniProt P38532); test: HSF1 potentiators in luciferase reporter cells, confirmation, cell-based, NIH3T3, luminescence, dose retest (AID 435004); assay type: functional;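 further: stress induced by proteasome inhibitor MG132 added 30 min after compound; luciferase reporter driven by HSF1 response element in NIH3T3 cells; actives raise luminescence as potentiators of the MG132 stress response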
T3 sequence (P38532 whole entry): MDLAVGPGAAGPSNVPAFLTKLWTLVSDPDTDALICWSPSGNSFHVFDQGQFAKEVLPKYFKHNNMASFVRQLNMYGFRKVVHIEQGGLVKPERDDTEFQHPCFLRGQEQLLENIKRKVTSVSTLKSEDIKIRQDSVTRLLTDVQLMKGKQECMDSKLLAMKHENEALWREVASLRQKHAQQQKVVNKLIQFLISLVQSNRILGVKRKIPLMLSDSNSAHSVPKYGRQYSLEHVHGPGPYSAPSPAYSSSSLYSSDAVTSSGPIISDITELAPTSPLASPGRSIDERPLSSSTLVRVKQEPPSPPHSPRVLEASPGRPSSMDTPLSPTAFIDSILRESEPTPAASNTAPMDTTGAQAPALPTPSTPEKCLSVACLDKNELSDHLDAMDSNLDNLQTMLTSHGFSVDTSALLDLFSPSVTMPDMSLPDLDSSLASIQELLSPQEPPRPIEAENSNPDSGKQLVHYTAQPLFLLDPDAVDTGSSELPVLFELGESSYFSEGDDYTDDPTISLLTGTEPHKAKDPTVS

[16] = C. albicans growth with fluconazole, confirmation, fluorescence, retest (AID 2467); assay type: functional, cell-based
[17] = test system: Streptococcus sp. 'group A'; test: growth inhibition of control SK(-) GAS strain, dose response, counter-screen for streptokinase expression inhibitor project, luminescence, kanamycin, BacTiterGlo, confirmation (AID 1900); assay type: functional, organism-based
[18] = molecular target: T4, Streptokinase A (Streptococcus pyogenes serotype M1, UniProt P10520); test: S. pyogenes streptokinase expression inhibitors, potency, dose response, plasminogen activation absorbance, OD405 (AID 1914); assay type: functional, Streptococcus pyogenes M1 GAS;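 further: secreted streptokinase activity via plasminogen activation per viability signal from cell pellet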
T4 sequence (P10520 whole entry): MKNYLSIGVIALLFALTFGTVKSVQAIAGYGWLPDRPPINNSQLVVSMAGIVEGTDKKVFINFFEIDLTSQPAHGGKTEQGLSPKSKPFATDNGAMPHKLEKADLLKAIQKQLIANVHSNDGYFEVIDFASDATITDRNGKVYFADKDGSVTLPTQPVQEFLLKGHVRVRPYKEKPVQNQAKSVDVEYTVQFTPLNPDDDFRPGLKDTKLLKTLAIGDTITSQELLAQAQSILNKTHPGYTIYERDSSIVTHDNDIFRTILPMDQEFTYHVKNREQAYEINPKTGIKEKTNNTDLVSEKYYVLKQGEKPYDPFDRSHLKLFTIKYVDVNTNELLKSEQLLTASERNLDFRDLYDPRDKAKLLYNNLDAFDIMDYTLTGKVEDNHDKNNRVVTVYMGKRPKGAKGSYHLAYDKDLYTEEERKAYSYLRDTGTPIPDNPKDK

[19] = test system: Streptococcus; test: Group A Streptococcus viability loss, dose response, counter-screen for streptokinase expression inhibitor project, luminescence, BacTiterGlo (AID 1915); assay type: functional, organism-based;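 further: potency for reduction of bacterial viability or growth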
[20] = inhibitors of intracellular T. cruzi replication, confirmation, NIH3T3 host cells, beta-gal luminescence (AID 2044); assay type: functional, cell-based;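 further: intracellular parasites grown in NIH/3T3 mouse fibroblasts as host cells; luminescent beta-galactosidase reporter signal from transgenic T. cruzi replicating inside host cells; inhibitors lower the luminescence signal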
[21] = cytotoxicity toward NIH3T3 fibroblasts, dose response, counter-screen, cell-based, ATP luminescence, mouse fibroblasts (AID 2010); assay type: functional;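 further: cells exposed to compound for about 90 hours before reading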

## Cc1nc(Cl)cc(N/N=C/c2ccc(O)cc2O)n1
[1]
  IC50: 16.6 µM (active)

## N#C/C(=C/c1ccc(N2CCCC2)c([N+](=O)[O-])c1)c1nc2ccccc2[nH]1
[2]
  AC50: 3.55 µM (inconclusive)

## Cn1ccnc1SCC(=O)Nc1sccc1C#N
[3]
  AC50: 7.08 µM (inconclusive)
[4]
  AC50: 25.1 µM (inconclusive)

## CC(=O)Oc1ccc(C)cc1-n1nc2ccccc2n1
[5]
  EC50: 0.445 µM (active)
[6]
  EC50: 2.63 µM (active)

## CC1COc2ccccc2N1S(=O)(=O)c1ccccc1 (stereo not drawn)
[7]
  EC50: > 150 µM (inconclusive)

## COc1ccc(NCC(O)Cn2c(C)c(C)c3ccccc32)cc1 (stereo not drawn)
[1]
  IC50: 70.7 µM (active)

## O=C(CNS(=O)(=O)c1ccc(Br)s1)N1CCC2(CC1)OCCO2
[2]
  AC50: 15.8 µM (inconclusive)
[8]
  AC50: 25.1 µM (inconclusive)

## O=C(OCC(=O)N1CCc2ccccc21)c1ccc([N+](=O)[O-])cc1
[9]
  IC50: 7.65 µM (active)

## COc1ccccc1NC(=O)N(Cc1ccco1)Cc1cc2ccc(C)c(C)c2nc1O
[10]
  EC50: > 60 µM (not active)
[11]
  EC50: 27.6 µM (active)
[12]
  EC50: 11 µM (active)
[13]
  EC50: > 112 µM (not active)
[14]
  EC50: > 112 µM (not active)
[15]
  EC50: > 260 µM (inactive)

## COc1ccc(NCc2cc(O)nc3ccccc23)cc1
[1]
  IC50: 50.5 µM (active)

## Cc1ccc(S(=O)(=O)C(C#N)c2nc3ccccc3nc2N2CCN(C)CC2)cc1C (stereo not drawn)
[7]
  EC50: > 150 µM (inactive)
[16]
  EC50: > 38 µM (not active)

## CS(=O)(=O)N1CCC2(CCCN(C(=O)Nc3ccccc3)C2)CC1
[2]
  AC50: 15.8 µM (inconclusive)

## Clc1ccccc1-c1nc(/C=N/N2CCOCC2)c2ccccn12
[1]
  IC50: 33.6 µM (active)

## O=C(Nc1nnc(-c2ccc(Cl)cc2)o1)C1=COCCO1
[9]
  IC50: 4.83 µM (active)

## CCCCNCC#CCOc1cc(C)ccc1C(C)C
[1]
  IC50: 196 µM (active)

## CN1CCc2c1nc1ccccc1c2NC(=O)CN1CCCC1
[1]
  IC50: 117 µM (active)

## CC(C)CN(Cc1c(O)ccc2ccccc12)CC(C)C
[1]
  IC50: 47.5 µM (active)

## COC(=O)c1cc2n(n1)CCN(Cc1ccccc1F)C2=O
[3]
  AC50: 5.01 µM (inconclusive)
[2]
  AC50: 15.8 µM (inconclusive)

## COCCOC(=O)c1c(C)oc2ccc(OC(=O)c3ccco3)cc12
[9]
  IC50: > 50 µM (active)

## Cc1sc(NC(=O)c2ccc(Br)s2)c(C(N)=O)c1C
[7]
  EC50: > 150 µM (inactive)
[16]
  EC50: > 38 µM (not active)

## O=c1c(-c2cccs2)nc2cnc(Nc3ccccc3)nc2n1C[C@H]1CCCO1
[2]
  AC50: 2.51 µM (inconclusive)
[8]
  AC50: 10 µM (inconclusive)

## Sc1nnc(C2CCCCC2)n1/N=C/c1cccc(Cl)c1Cl
[10]
  EC50: 15.2 µM (active)
[17]
  EC50: 4.7 µM (active)
[11]
  EC50: > 120 µM (not active)
[12]
  EC50: 15.1 µM (active)
[18]
  EC50: > 150 µM (not active)
[19]
  EC50: 7.5 µM (active)

## CN1CC[C@@]2(CCCN(C(=O)c3csnn3)C2)C1
[4]
  AC50: 39.8 µM (inconclusive)

## CCN(CC)c1ccc(NC(=O)c2ccc(S(=O)(=O)N3CCOCC3)cc2)cc1
[1]
  IC50: 71.9 µM (active)

## COc1cccc(/C=N/NC(=O)c2cc(-c3cccn3C)[nH]n2)c1O
[7]
  EC50: 23.5 µM (inconclusive)
[16]
  EC50: 2.95 µM (active)

## COc1ccccc1-c1ccc2ncnc(NCCN3CCOCC3)c2c1
[4]
  AC50: 39.8 µM (inconclusive)

## COc1cccc(NC(=O)c2cc3ccccc3oc2=O)c1
[9]
  IC50: 34.4 µM (active)

## Cc1cccc(NC(=O)N(Cc2nc(O)c3ccccc3n2)C2CCCC2)c1
[4]
  AC50: 39.8 µM (inconclusive)

## C=C(C)C1Cc2c(C)nn(-c3nc(C)cc(C)n3)c2C1 (stereo not drawn)
[17]
  EC50: 25 µM (active)
[18]
  EC50: > 150 µM (not active)
[19]
  EC50: > 150 µM (not active)
[9]
  IC50: 3.19 µM (active)

## CC(=O)Nc1cccc2cc(O)ccc12
[1]
  IC50: 36.8 µM (active)

## Clc1cccc(N/N=C/c2ccc(N3CCOCC3)cc2)c1
[20]
  EC50: 2.74 µM (active)
[21]
  EC50: > 60 µM (not active)
[4]
  AC50: 7.08 µM (inconclusive)

## CS(=O)(=O)Nc1cccc(-c2ccc3ncnc(Nc4ccccc4)c3c2)c1
[4]
  AC50: 25.1 µM (inconclusive)

## Cn1c(C[S+]([O-])Cc2c(Cl)cccc2Cl)nnc1SCc1ccc(Cl)cc1 (stereo not drawn)
[10]
  EC50: > 120 µM (not active)
[11]
  EC50: > 120 µM (not active)
[12]
  EC50: 13.8 µM (active)
